One data set can be described thus: Diarrhea Assay. In kind it is in vivo, male Charles River rats. The settings on record: in vivo.
A further data set concerns diarrhea. The data set is described as follows: Diarrhea Assay. It counts as in vivo, male Charles River rats.

In the case of `COC(=O)CC/C=C\CC[C@H]1C(=O)C[C@@H](O)[C@@H]1/C=C/CC(C)(O)/C=C/C1=CCCC1` (relative stereo) [Example 1, methyl 7-[3α-hydroxy-2β-(4-hydroxy-4-methyl-6-(1'-cyclopentenyl)-1,5-trans,trans-hexadienyl)-5-oxocyclopentane]-1-α-hept-4-cis-enoate], the selectivity ratio in the data set “Diarrhea Assay” (ratio of rat diarrhea ED50 to Pavlov pouch antisecretory ED50, read-out: Thrapeutic Index ED50 diarrhea/ED50 antisecretory) was determined as 160000. For the same molecule, the “Diarrhea Assay Rat (iv) ED50” value with diarrhea (Rat (iv) per table head, method text: intragastric, fasted rats, up to eight hours) was 3.2 mg/kg.
On to `COC(=O)CC/C=C\CC[C@H]1C(=O)C[C@@H](O)[C@@H]1/C=C/CC(C)(O)/C=C/C=C(C)C` (relative stereo) [Example 2], for which, in the data set “Diarrhea Assay” (Rat (iv) per table head, method text: intragastric, fasted rats, up to eight hours, read-out: Diarrhea Assay Rat (iv) ED50), the TD50 stood at 3.2 mg/kg. Moreover, the “Diarrhea Assay Rat (iv), result in words” value in the data set on diarrhea (Rat (iv), at 3200 mcg/kg) was “inactive”.

The values are drawn from patent US4847293A, “Tetraenyl prostaglandins” (priority 1988, dated 1989).
